Experimental data: patent US20250376477A1, “ANALGESIC DELTA OPIOID RECEPTOR BITOPIC LIGANDS” (UNIVERSITY OF SOUTHERN CALIFORNIA, priority 2022, published 2025)

What was measured:
[1] = In vivo analgesia / oral activity in chronic pain models; details: for Orally active: oral
C57BL/6J mice [2] = experiment: Seizure assay; details: for seizure occurrence: compared with known DOR agonists; for seizures in seizure assay: C57BL/6J mice, sc injection, C6 quino at analgesic doses
DOR [3] = target: T1, DOR (Homo sapiens, UniProt P41143); type: cell-based; details: for potency at DOR: BRET based Gi-1 assay / G-protein pathways; for G-protein bias: G-protein vs arrestin at DOR; for selectivity for DOR over other opioid subtypes: DOR vs KOR and MOR, BRET based Gi-1 assays
KOR = KOR (Homo sapiens, UniProt P41145); experiment: BRET based Gi-1 assay, activation of KOR; type: cell-based
C57BL/6J mice [4] = experiment: Locomotor effects; details: sc injection, C6-quino 30 mg/kg sc
C57BL/6J mice [5] = experiment: Respiratory depression; details: sc injection, morphine 10 mg/kg
Microsomal stability = details: microsomes
DOR [6] = target: T1, DOR; type: cell-based; details: compared to DPDPE and C5 quino
PK assays = type: in vivo
sciatic nerve ligation = experiment: Mechanical allodynia induced by sciatic nerve ligation; type: in vivo
Description: Mechanical allodynia induced by sciatic nerve ligation was reduced between 20 and 140 minutes after treatment with 30 mg/kg C6-quino sc. Supraspinal (icv) antinociception mediated by C6 quino is DOR dependent, yet C6-quino produced no seizures (B, top).

DOR [7] = target: T2, DOR (Mus musculus, UniProt P32300); type: in vivo
T2 construct: from tissue; host or cells: living animal, central nervous system (icv dosing)

C57BL/6J mice [8] = experiment: Rotarod assay (motor coordination); details: sc injection
DOR [9] = target: T1, DOR; type: cell-based; details: compared to known DOR orthosteric site binders
DOR [10] = target: T1, DOR; type: cell-based; details: compared to DPDPE and C5 quino; remark: listed apart in the source

T1 sequence (P41143 whole entry): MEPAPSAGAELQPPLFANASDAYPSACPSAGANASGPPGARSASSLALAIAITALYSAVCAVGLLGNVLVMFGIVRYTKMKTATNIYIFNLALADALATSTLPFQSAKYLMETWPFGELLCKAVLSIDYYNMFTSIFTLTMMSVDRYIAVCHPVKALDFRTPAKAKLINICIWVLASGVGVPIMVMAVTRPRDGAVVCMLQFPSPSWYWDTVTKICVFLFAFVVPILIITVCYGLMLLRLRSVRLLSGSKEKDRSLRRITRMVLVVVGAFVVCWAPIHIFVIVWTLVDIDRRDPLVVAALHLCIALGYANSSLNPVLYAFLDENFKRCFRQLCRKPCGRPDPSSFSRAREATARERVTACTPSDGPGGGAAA
Sequence of KOR (P41145 whole entry): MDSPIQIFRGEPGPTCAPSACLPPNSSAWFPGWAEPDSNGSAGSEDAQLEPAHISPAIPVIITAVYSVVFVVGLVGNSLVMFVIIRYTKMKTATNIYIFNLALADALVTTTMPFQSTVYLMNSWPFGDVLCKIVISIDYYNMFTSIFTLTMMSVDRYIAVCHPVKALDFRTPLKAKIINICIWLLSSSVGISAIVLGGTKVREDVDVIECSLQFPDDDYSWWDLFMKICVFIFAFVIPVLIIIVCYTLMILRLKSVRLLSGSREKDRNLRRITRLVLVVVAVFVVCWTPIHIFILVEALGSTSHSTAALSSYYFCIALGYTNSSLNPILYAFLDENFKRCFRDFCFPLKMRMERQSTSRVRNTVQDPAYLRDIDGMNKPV
T2 sequence (P32300 whole entry): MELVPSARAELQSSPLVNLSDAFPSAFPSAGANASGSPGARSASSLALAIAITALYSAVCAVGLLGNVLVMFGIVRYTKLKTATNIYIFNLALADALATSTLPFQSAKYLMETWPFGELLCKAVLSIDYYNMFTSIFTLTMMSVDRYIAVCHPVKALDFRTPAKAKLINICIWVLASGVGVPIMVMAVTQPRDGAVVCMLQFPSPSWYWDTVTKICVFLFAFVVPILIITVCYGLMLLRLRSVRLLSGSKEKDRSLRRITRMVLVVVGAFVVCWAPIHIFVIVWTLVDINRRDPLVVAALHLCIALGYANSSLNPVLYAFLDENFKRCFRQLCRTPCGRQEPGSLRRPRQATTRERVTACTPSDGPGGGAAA

SMILES | efficacy in chronic pain models [1] | Orally active [1] | seizure occurrence (C57BL/6J mice [2]) | potency at DOR (DOR [3]) | G-protein bias (DOR [3]) | activity at KOR (KOR) | locomotor activity (C57BL/6J mice [4]) | respiratory depression (C57BL/6J mice [5]) | seizures in seizure assay (C57BL/6J mice [2]) | selectivity for DOR over other opioid subtypes (DOR [3]) | functional profile (potency and efficacy) across DOR G protein subtypes and βarrestin-1 and 2 (DOR [9]) | further results
N=C(N)NCCCCCCN1CCC23c4c5ccc(O)c4O[C@H]2c2[nH]c4ccccc4c2C[C@@]3(O)C1C5 (stereo partly shown) [C6-Indole] | effective in chronic pain models | orally active | do not cause seizures | high potency | G-protein biased | retained activity | – | – | – | – | – | –
CN1CC[C@]23c4c5ccc(O)c4O[C@H]2[C@@H](O)C=C[C@H]3[C@H]1C5 [Morphine, reference compound] | – | – | – | – | – | – | hyperlocomotion | caused respiratory depression | – | – | – | –
N=C(N)NCCCCCCN1CCC23c4c5ccc(O)c4O[C@H]2c2nc4ccccc4cc2C[C@@]3(O)C1C5 (stereo partly shown) [C6-Quino] | effective in chronic pain models | orally active | do not cause seizures | high potency | G-protein biased | – | did not significantly differ from the vehicle at any time point | did not cause significant respiratory depression | no seizures | selectivity for DOR over other opioid subtypes | unique functional profiling | Orally active ([1]; listed as 6C-Quino): YES; half-life (Microsomal stability): > 2 h; intrinsic efficacy at DOR, βarrestin-1 (DOR [6]): lower intrinsic efficacy; brain penetration (PK assays; PK assays): good; systemic availability (PK assays; PK assays): good; half-life (PK assays; in vivo): 2 h; seizures (C57BL/6J mice [2]; FIG. 4B top): no seizures; intrinsic efficacy at DOR, G-protein (DOR [3]; compared to DPDPE and C5 quino): lower intrinsic efficacy; anti-allodynic effect in presence of NTB (sciatic nerve ligation; antagonist NTB): antagonized by NTB; anti-allodynic activity (sciatic nerve ligation; sciatic nerve ligation, mechanical allodynia): dose- and time-dependent anti-allodynic activity similar to gabapentin; supraspinal (icv) antinociception, receptor dependence (DOR [7]): DOR dependent; sedation in rotarod assay (C57BL/6J mice [8]): no propensity to cause sedation; intrinsic efficacy at DOR, βarrestin-2 (DOR [10]): lower intrinsic efficacy
N=C(N)NCCCCCN1CC[C@]23c4c5ccc(O)c4O[C@H]2c2[nH]c4ccccc4c2C[C@@]3(O)[C@H]1C5 [C5-Indole] | – | – | – | high potency | – | retained activity | – | – | – | – | – | –
C=CCN1C[C@H](C)N([C@H](c2ccc(C(=O)N(CC)CC)cc2)c2cccc(OC)c2)C[C@H]1C [SNC80, reference compound] | – | – | – | – | – | – | – | – | caused seizures | – | – | –
N=C(N)NCCCCCN1CCC23c4c5ccc(O)c4O[C@H]2c2nc4ccccc4cc2C[C@@]3(O)C1C5 (stereo partly shown) [C5-Quino] | – | – | – | high potency | – | – | – | – | – | selectivity for DOR over other opioid subtypes | unique functional profiling | –
